The test deals with rats with spinal nerve ligature (Chung neuropathic pain model). As to the kind of experiment: Chung spinal nerve ligation (L5 and L6) neuropathic pain model, thermal stimulation (Example 2). Type of test: in vivo, rat. Conditions: for Paw Withdrawal Latency (s) Lesioned Paw / Paw Withdrawal Latency (s) Non-lesioned Paw: hypersensitivity test after 8 days of twice daily administration. The source says: The Chung neuropathic pain model (Kim and Chung, Pain, 50: 355-363, 1992), employs spinal nerve ligation (SNL) in a rat. Tight ligature of spinal nerves in a rat is associated with hyperalgesia, allodynia and spontaneous pain. Antihyperalgesics reduce these chronic signs of pain hypersensitivity. Thus, the Chung model permits testing of the antihyperalgesic activity of compounds in rats with neuropathic pain. The Chung model constitutes a model for peripheral neuropathic pain in humans, and was employed as follows.
Male Rj: Wistar (Han) rats, weighing 264-369 g at the beginning of the experiment, were obtained from Elevage Janvier, 53940 Le Genest-Saint-Isle, France. The rats were acclimatized to laboratory conditions for at least 5 days before the surgery phase of the experiment. The rats were housed in groups of five in macrolon cages (41×25×14 cm) on wood litter (Litalabo—SPPS, 95100 Argenteuil, France) with free access to food (code 113—SAFE, 91360 Epinay-sur-Orge, France) and water until tested. The animal houses were maintained under artificial lighting (12 hours) between 7:00 AM and 7:00 PM in a controlled ambient temperature of 21±3° C., and with relative humidity maintained at 40-70%.
Rats (264-369 g) were anesthetized with sodium pentobarbital (50 mg/kg i.p.), and an incision at the L4-S2 level was made to expose the left L5 and L6 spinal nerves. A ligature was tied tightly around each nerve. The wound was then sutured. The rats received an i.m. injection of 50,000 IU penicillin G and were allowed to recover. At least 2 weeks after the surgery, when the chronic state was fully installed, rats were submitted consecutively to tactile and thermal stimulation of both the non-lesioned and the lesioned hindpaws.
Doses of OPC-14523 were prepared in stock solutions (weight per volume, W/V), then in dilutions (volume per volume, V/V), as appropriate. The compound was dispersed in 0.5% tragacanth in distilled water. Morphine was dissolved in physiological saline as a reference standard for treatment of pain. The solutions for the test and reference substances were prepared fresh on the day of the experiment.
The vehicle, OPC-14523, and reference (morphine) compound were each administered in a volume of 5 ml/kg body weight. The doses of OPC-14523 were expressed in mg of substance per kg body weight and administered orally (p.o.). The vehicle control was also administered orally. The dose of morphine was expressed in mg of hydrochloride salt per kg body weight and administered i.p.
Each animal was tested at 30 minutes, 1 hour, 2 hours and 4 hours after the administration of a substance. Testing occurred in the morning.
To evaluate chronic drug administration and hypersensitivity induction, animals received a second substance treatment in the afternoon, after acute testing. The animals then received twice-daily substance treatment for an additional 9 days. To test for induction of hypersensitivity, the animals were tested, on the ninth day, 30 minutes before the first substance administration in the morning. The effect of chronic administration was tested on the tenth day 30 minutes, 1 hour, 2 hours and 4 hours after the administration of the substance in the morning.
An apparatus (Ugo Basile, Product reference: 7371, Comerio, Italy) consisted of six individual Plexiglas® boxes (17×11×14 cm) placed upon an elevated glass floor. A rat was placed in the box and left free to habituate for 10 minutes. Then, a mobile infrared radiant source was focused under the non-lesioned and lesioned hindpaws. The paw-withdrawal latencies were automatically recorded. Paw withdrawal interrupts the reflected radiation and switches off the counter and the light source. In order to prevent tissue damage, the test was terminated after 45 seconds if no reaction was noted.
Prior to receiving drug treatment, all animals were submitted to tactile stimulation and assigned to treatment groups, matched on the basis of their pain response. […]

Regarding `COc1cccc2c1CCC(=O)N2CCCN1CCN(c2cccc(Cl)c2)CC1` [OPC-14523, 1-[3-[4-(3-chlorophenyl)-1-piperazinyl]propyl]-5-methoxy-3,4-dihydro-2(1H)-quinolone], the “change of paw-withdrawal latency vs vehicle” value is recorded as −57% (acute, 10 mg/kg p.o., 30 minutes, NS); “+190%” (acute, 10 mg/kg p.o., lesioned paw, 4 hours); 259% (acute, 30 mg/kg p.o., lesioned paw, 4 hours); 270% (acute, 100 mg/kg p.o., lesioned paw, 4 hours); −27% (acute, 100 mg/kg p.o., non-lesioned paw, p<0.05); “+62%” (chronic, 30 mg/kg, lesioned paw, 4 hours, p<0.05). Besides, under “hypersensitivity test, repeated treatment 10 mg/kg p.o., lesioned paw, p<0.01”, the “change of paw-withdrawal latency vs vehicle” value is −67%. For the same molecule, the “effect on paw-withdrawal latency” value (chronic, non-lesioned paw) is “no effect”. Moreover, the “Paw Withdrawal Latency (s) Lesioned Paw” value is on record as 4.5 (p < 0.01) s (10 mg/kg p.o.), 19.9 (NS) s (30 mg/kg p.o.) and 22.3 (NS) s (100 mg/kg p.o.). In addition, the “Paw Withdrawal Latency (s) Non-lesioned Paw” value is, setting by setting: (10 mg/kg p.o.) 43.7 (NS) s; (30 mg/kg p.o.) 37 (NS) s; (100 mg/kg p.o.) 39.1 (NS) s. Also, where the note is “hypersensitivity test, lesioned paw at other doses, non-lesioned paw at any dose”, the “effect on paw-withdrawal latency vs vehicle control” value is given as “No effects”.
